# According to patent US5750332A, “Peptomers with enhanced immunogenicity” (priority 1995, dated 1998):
# Several values for one entry are separate records, joined by “and”; a condition that tells them apart may be missing. Equal entries are not always repeated. Where two headings read alike, the source gives them in different places. Where no end group is shown, it is not given here.
# Assays:
# [1] = Circular dichroism spectroscopy, degree of α-helicity; type: physicochemical; conditions: for helix content: circular dichroism, analysis according to Provencher et al.
# Excerpt: Circular dichroism spectroscopy was used to determine the degree of α-helicity of the peptomer and the peptide from which it was derived. […] In this case, the peptide contains 8±7% helix, while the peptomer has 31±1%. This establishes that by polymerizing the peptide, the peptomer achieves a conformation that is not favored for the free peptide monomer.
# Using circular dichroism spectroscopy as described in Example 5, above, the degree of α-helicity of the peptide (419-436) with and without detergent was determined.
# [2] = target: CD4 (Homo sapiens, UniProt P01730); assay: Binding of peptide monomer to CD4 in the presence of detergent
# [3] = system: antisera from HIV infected individuals; assay: ELISA of serum samples on plates coated with peptide or peptomer; type: binding; conditions: for ELISA Titer of serum sample: 1 μg/well coated
# Method: Standard ELISA methods were used in these experiments. Briefly, 96-well polystyrene plates were coated with 1 μg/well of peptide or peptomer. The peptide found 9/27 (33%); the peptomer found 26/27 (96%); 1/10 (10%) false positive with the peptomer.
# [4] = target: T1, gp120 binding to CD4 (Homo sapiens, UniProt P01730); assay: ELISA: inhibition of gp120 binding to CD4 by peptomer; parameters: species or system HIV-1; conditions: 500 ng/well recombinant soluble gp120 coated, biotinylated CD4, peptomer prepared without lyophilization
# T1 construct: recombinant soluble CD4 (Genentech); purchased Genentech
# Method: C. Inhibition of gp120 binding to CD4 by peptomer(419-436). The ELISA procedure was the same as above except that 500 ng/well of recombinant soluble gp120 was used to coat each well instead of peptomer. Poly-scrambled peptomer is a peptomer that contains all the amino acids as in peptomer(419-436) in a scrambled order.
# [5] = target: recombinant soluble gp120 (Human immunodeficiency virus type 1 group M subtype B, UniProt P05877); conditions: rabbit antibodies, dot blot assay
# Method: The dot blot assays were carried as follows. Peptomers in H2 O were spotted onto nitrocellulose paper. The nitrocellulose was then blocked with 3% bovine serum albumin in tris-buffered saline (TBS) pH 7.4 for 1 hour, then treated with 1 μg/ml biotinylated rsCD4 (Genentech, South San Francisco, Calif.) for 3 hours in a buffer containing TBS and 0.1% Tween 20. The nitrocellulose was then treated with a 1:750 dilution of streptavidin-horseradish peroxidase conjugate and developed.
# [6] = system: HIV-1 (MN); assay: HIV-1 (MN) in vitro neutralization by sera of immunized Rhesus monkeys; type: cell-based; conditions: 1 mg in PBS at 0 and 3 weeks, reciprocal serum dilution giving 40% neutralization
# Method: (§1) This experiment was done with Rhesus monkeys that had been primed with various attenuated poxvirus recombinant carrying HIV-1MN genes and boosted with envelope and gag proteins formulated in alum. Six monkeys were used for the studies. Two of the monkeys were immunized with peptomer(419-436) suspended in phosphate-buffered saline (PBS at pH 7.4 without adjuvant) and four were immunized with peptomer(419-436) in alum. Each animal was injected with a single 1 ml bolus containing 1 mg peptomer(419-436) in a subscapular location in order that the immunogen be administered in a lymph node-rich locus. Three weeks after the initial injection, the monkeys were injected again and the final evaluation was performed after an additional three weeks (a total of six weeks from the initial injection).
# The neutralization titers are given as the reciprocal of the dilution of
# serum that gives a 40% neutralization of HIV1 (MN) infection in vitro. A
# negative value means neutralization was not observed at the lowest serum
# dilution tested (1:25). The MN isolate was used because this was the
# strain used to design the peptomer.
# [7] = system: Rhesus monkeys; assay: Immune response of Rhesus monkeys: ELISA titer against the peptomer; type: in vivo; conditions: for ELISA titer 0 weeks: before peptomer immunization
# Method: as §1
# Three weeks following the initial administration of the peptomer(419-436) an ELISA titer against the peptomer of 1:3,200 was detected for the monkeys immunized with peptomer in alum.
# [8] = system: MN isolate of HIV1; assay: In vitro neutralization assay with rabbit antisera; type: cell-based; conditions: rabbit antibodies, Freund's adjuvant, HIV-1 MN in vitro
# Method: HIV-1 MN isolate was neutralized at a dilution of 1:70. Neutralization assays were carried as described in Robert-Guroff, et al. in Techniques in HIV Research Aldovini and Walker eds. pp. 179-185 (Aldrich 1990).
# gp120 Reactivity was in the dot blot assay. Neutralization was with an in
# vitro neutralization assay using the MN isolate of HIV1.
# [9] = Solubility of the peptomer; type: physicochemical
# Method: b) Polymerization of the peptide monomers to form peptomer (419-436) The peptide polymers were prepared by dissolving 5 mg of the N-bromoacetyl cysteine-containing peptides in 1.0 ml of deoxygenated 0.5M NaHCO3 or 0.1M NaHPO4, pH 7.0-7.5 buffer and stirring these solutions under N2 for 5-12 hours at 25° C. […] They are soluble in 10% acetic acid at less than about 1mg/ml.
# The peptomer used in the experiments described in this Example was prepared without a lyophilization step.
# [10] = system: binding of biotinylated CD4 to peptomer(419-436); conditions: 10 μg/200 μl peptomer coated; 1 μg/well biotinylated CD4
# [11] = diagnosis Hodgkins / lymphoma (control)
# [12] = diagnosis Kidney Graft (control)
substance,measurement,setting,value
KIKQIINMWQEVGKAMYA [Peptide 419-436],α-helix by circular dichroism,"[1]; PBS with 0.03% Brij 35, shoulder at 220 λ",presence of an α-helix
same,helix content,[1],8±7%
same,ability of the peptide monomer to bind CD4,[2],enhanced ability
same,ELISA Titer of serum sample,[3]; [11],0
same,ELISA Titer of serum sample,[3]; [12],0
same,ELISA Titer of serum sample,[3]; diagnosis NORMAL (control),0
same,ELISA Titer of serum sample,[3]; diagnosis uveitis (control),0
same,HIV-1(+) serum samples found,[3]; of 27 HIV+/AIDS sera,33%
same,HIV-1(+) serum samples found,[3]; positive of 27 HIV+/AIDS sera,9/27
"Peptomer (419-436): polymer of N-bromoacetyl cysteine-containing peptide monomers KIKQIINMWQEVGKAMYA, residues 419 to 436 of HIV-1 gp120 (also: polymerized via N-bromoacetyl cysteine, site not given here)",inhibition of gp120 binding to CD4,[4]; listed as peptomer,enhanced ability to block binding
same,inhibition of gp120 binding to CD4,[4]; listed as peptomer(419-436),inhibition
same,gp120 Reactivity,[5]; Freund's adjuvant,0
same,gp120 Reactivity,"[5]; Freund's adjuvant, listed as peptomer (419-436)",not able to recognize gp120
same,gp120 Reactivity,[5]; Ribi's adjuvant,reacted well
same,helix content,[1],31±1%
same,HIV-1 (MN) NEUTRALIZATION 6 weeks,[6],40 and 50
same,ELISA titer 0 weeks,"[7]; Rhesus monkeys, PBS without adjuvant",0
same,ELISA titer 0 weeks,"[7]; Rhesus monkeys, alum group",0
same,"ELISA titer against the peptomer, three weeks after initial administration","[7]; Rhesus monkeys, peptomer in PBS",No titer was detected
same,Immunogenicity in Rhesus monkeys,[7]; monkeys previously immunized with various HIV-related immunogens including gp160/120,immunogenic
same,Neutralization,[8],None
same,Neutralization,[8]; listed as peptomer (419-436),not able to recognize gp120 or to neutralize HIV-1 infection in vitro
same,ELISA Titer of serum sample,[3]; [11],0
same,ELISA Titer of serum sample,[3]; [12],0
same,ELISA Titer of serum sample,[3]; diagnosis NORMAL (control),0
same,false positive,[3]; of 10 non-HIV sera,10%
same,HIV-1(+) serum samples found,[3]; of 27 HIV+/AIDS sera,96%
same,false positive,[3]; positive of 10 non-HIV sera,1/10
same,HIV-1(+) serum samples found,[3]; positive of 27 HIV+/AIDS sera,26/27
same,solubility in 10% acetic acid,[9]; 10% acetic acid,less than 1 mg/ml
same,solubility in buffered saline solutions,[9]; buffered saline solutions,not soluble
same,solubility in aqueous solutions,[9]; peptomer prepared without a lyophilization step,increased solubility
same,solubility in water,[9]; water,only partially soluble
recombinant soluble gp120: recombinant soluble HIV-1 envelope glycoprotein gp120,inhibition of biotinylated CD4 binding to peptomer(419-436),[10],inhibition
